Assay results: patent US20040259909A1, “Treatment of fibromyalgia syndrome” (priority 2001, published 2004)
Read-outs that look alike come from different tables or passages of the source.

Experiments:
[1] = Animal models of memory and cognition; details: in vivo
From the text: In a first embodiment of the invention a suitable α7 agonist is spiro[1-azabicyclo[2.2.2]octane-3,5′-oxazolidine-2′-one (Compound 1, Table 1). […] This compound is disclosed in U.S. Pat. No. 5,902,814 the disclosure of which is incorporated herein in its entirety by reference. This compound is active in animal models of memory and cognition.

nAChR α7 = nAChR α7 (Rattus norvegicus, UniProt Q05941); experiment: Oocyte functional assay, two-electrode voltage clamp (Test C, FIG. 1); details: in words; currents in oocytes expressing nAChR α7 (FIG. 1)
Procedure: Xenopus oocytes Xenopus laevis frogs (Xenopus I, Kalamazoo, Mich.) were anesthetized using 0.15% tricaine. Oocytes were removed to OR2 solution: (in mM) 82 NaCl, 2.5 KCl, 5 HEPES, 1.5 NaH2PO4, 1 MgCl2, 0.1 EDTA, pH 7.4. The oocytes were defolliculated by incubation in 25 mL OR2 containing 0.2% collagenase 1A (SIGMA) two times for 60 min on a platform vibrating at 1 Hz and stored in Leibovitz's L-15 medium. Oocytes were injected the following day. Leibovitz's L-15 medium contained 50 μg/mL gentomycin, 10 units/mL penicillin, and 10 μg/mL streptomycin.
Preparation and injection of cRNA Rat nAChR α7 was cloned in-house (Luhowskyj). Non-polyadenylated cRNA was prepared from cDNA using mMessage mMachine SP6 (Ambion) according to the manufacturer's instructions.
Recording The external recording solution consisted of (in mM) 90 NaCl, 1 KCl, 1 MgCl2, 1 BaCl2, 5 HEPES, pH 7.4. […] Oocytes were impaled with two electrodes of 1-2 MΩ tip resistance when filled with 3M KCl. Recordings were begun when membrane potential became stable at potentials negative to −20 mV. Membrane potential was clamped at −80 mV unless otherwise noted. ACh, (−) was purchased from SIGMA.
Calculation of current amplitude and curve fitting Current amplitude was measured from baseline to peak. EC50's, maximal effect, and Hill slopes were estimated by fitting the data to the logistic equation using GraphPad Prism (GraphPad Software, Inc. San Diego, Calif.)
Data are fit by the logistic equation.

α7 nAChR subtype = target: T1, α7 nAChR subtype (Rattus norvegicus, UniProt Q05941); experiment: 125I-α-Bungarotoxin (BTX) binding to rat hippocampal membranes (Test A)
T1 construct: Rat hippocampi were homogenized in 20 volumes of cold homogenisation buffer; from tissue; host or cells: rat hippocampus membranes
Procedure: Test A—Assay for Affinity at α7 nAChR Subtype
Rat hippocampi were homogenized in 20 volumes of cold homogenisation buffer (HB): (in mM): tris(hydroxymethyl)aminomethane 50; MgCl2 1; NaCl 120; KCl 5: pH 7.4). The homogenate was centrifuged for 5 min at 1000 g, the supernatant was saved and the pellet re-extracted. The pooled supernatants were centrifuged for 20 min at 12000 g, washed, and re-suspended in HB.
(§1) Ki values were estimated using the general Cheng-Prusoff equation (A):
(§2) where a value of n=1 was used whenever nH<1.5 and a value of n−2 was used when nH≧1.5. Samples were assayed in triplicate and were typically ±5%. Ki values were determined using six or more drug concentrations.

5-HT3 = target: T2, 5-HT3 (Rattus norvegicus, UniProt P35563); experiment: [3H]zacopride binding to rat small-bowel muscularis membranes (Test B); details: 0.5 nM [3H]zacopride, read-out: Binding Affinity (Ki/nM) 5HT3
T2 construct: using rat small-bowel muscularis membranes suspended in 50 mM Tris; from tissue; host or cells: rat small-bowel muscularis membranes
T2 sequence (P35563 24-483): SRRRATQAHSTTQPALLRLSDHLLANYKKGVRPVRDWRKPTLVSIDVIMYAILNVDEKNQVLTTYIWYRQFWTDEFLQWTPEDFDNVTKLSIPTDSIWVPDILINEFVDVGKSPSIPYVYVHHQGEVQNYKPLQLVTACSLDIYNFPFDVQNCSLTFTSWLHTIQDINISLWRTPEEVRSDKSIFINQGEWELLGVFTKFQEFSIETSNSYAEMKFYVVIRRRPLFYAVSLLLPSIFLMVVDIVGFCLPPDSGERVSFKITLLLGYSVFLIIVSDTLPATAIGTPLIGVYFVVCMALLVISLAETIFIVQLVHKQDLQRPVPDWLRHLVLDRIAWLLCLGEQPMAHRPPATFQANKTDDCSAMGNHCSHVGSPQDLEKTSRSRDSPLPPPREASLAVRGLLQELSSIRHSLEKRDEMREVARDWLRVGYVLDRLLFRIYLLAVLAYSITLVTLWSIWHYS
Procedure: Test B—Assay for Affinity to the 5-HT3 nAChR Subtype
[^3]zacoipride binding. […] Incubation was continued for one hour.
Binding Data Analysis for Tests A and B
as §1, §2

[2] = complex spatial memory task, animal models; cited from earlier work
[3] = fibromyalgia patients treated with tropisetron; cited from earlier work

Chain of nAChR α7 (Q05941 23-502): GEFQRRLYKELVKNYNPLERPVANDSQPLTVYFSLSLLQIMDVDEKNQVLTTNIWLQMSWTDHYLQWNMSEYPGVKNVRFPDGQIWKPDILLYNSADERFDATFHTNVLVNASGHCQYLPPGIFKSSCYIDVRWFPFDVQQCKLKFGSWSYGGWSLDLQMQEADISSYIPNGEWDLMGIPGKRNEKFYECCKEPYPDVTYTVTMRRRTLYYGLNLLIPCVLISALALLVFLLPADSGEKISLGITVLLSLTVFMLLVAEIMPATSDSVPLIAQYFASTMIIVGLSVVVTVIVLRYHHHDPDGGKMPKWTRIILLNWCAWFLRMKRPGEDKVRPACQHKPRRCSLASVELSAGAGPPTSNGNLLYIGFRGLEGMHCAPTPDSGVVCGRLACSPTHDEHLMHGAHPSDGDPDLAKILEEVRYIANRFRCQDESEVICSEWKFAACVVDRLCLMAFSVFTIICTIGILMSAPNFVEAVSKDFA
T1 sequence (Q05941 23-502): as above

| Compound | activity at the α7 receptor (nAChR α7) | antagonism of spatial navigation impairment [2] | further results |
| --- | --- | --- | --- |
| O=C1NC[C@]2(CN3CCC2CC3)O1 [Compound 1, spiro[1-azabicyclo[2.2.2]octane-3,5′-oxazolidine-2′-one] | selective α7 agonist |  | activity in animal models of memory and cognition [1]: active |
| c1cnc2c(c1)C[C@@]1(CN3CCC1CC3)O2 [Compound 2, spiro[1-azabicyclo[2.2.2]octane-3,2′-(3′H)-furo[2,3-b]pyridine]] |  |  | Ki (α7 nAChR subtype; [125I]α-BTX 5 nM, rat hippocampal membranes, read-out: Binding Affinity (Ki/nM) α7): 14 nM |
| O=C(NC1CN2CCC1CC2)c1cc(-c2ccccc2)cs1 (stereo not shown) [Compound 3, N-(1-azabicyclo[2.2.2]oct-3-yl)(4-phenylthiophene-2-carboxamide)] |  |  | Ki (α7 nAChR subtype): 1.6 nM; Ki (5-HT3): 20000 nM |
| Cc1nccn1CC1CCc2c(c3ccccc3n2C)C1=O (stereo not shown) [ondansetron] | lacked activity | not |  |
| CN1[C@@H]2CC[C@H]1C[C@@H](OC(=O)c1c[nH]c3ccccc13)C2 [tropisetron] | potent and selective partial agonist | antagonize spatial navigation impairment | reduction in fibromyalgia symptoms [3]: statistically significant reduction in their symptoms |
